Holding throughout (assay type): cell-based
One experiment addresses GSPT1 (Homo sapiens, UniProt P15170+Q96SW2). Put plainly: GSPT1 Cellular Degradation Assay (DF15-GSPT1-ePL). Also on record: expressed in transfected cells. Conditions: DF15-GSPT1-ePL cells, 20 hours. The method, boiled down:
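DC50 and Dmax were derived from chemiluminescence, with 75% response set by the reference compound at […]. Readout was ePL enzyme-fragment complementation in a DF15 line expressing chimeric GSPT1. Cells were exposed to compound for 20 h at 37 °C in RPMI 1640 with 10% FBS, cooled 30 min, then lysed with substrate for 60 min.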

For a further experiment, the system named is Phospho-Rb (Ser807/811). The experiment can be described thus: Phospho-Retinoblastoma (pRB) Cellular Assay. Conditions: Homo sapiens, OVCAR-3, NIH OVCAR3 cells, 24 hours; for IC50: concentration giving 50% response; for Emax: maximum response, reference compound at 10 μM = 100%, read-out: pRB Ymax. In short, it runs like this:
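Phospho-Rb (Ser807/811) kit read-out on EnVision after lysis (≥4 h, room temperature, dark) of OVCAR3 cells exposed to compound dilutions for 24 h. IC50 and maximum response Ymax are relative to a 10 μM reference compound defining 100%.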

In a further experiment the target is Cyclin E1 (Homo sapiens, UniProt P24864+Q96SW2). Put plainly: Cyclin E1 Cellular Degradation Assay (MSD). Also on record: endogenous in cells; host or cells: OVCAR3. Conditions: for DC50 / Dmax: Cyclin E1 cellular degradation; for Dmax: maximum degradation; for Ratio of GSPT1 DC50/Cyclin E1 DC50: selectivity for degradation of Cyclin E1 over GSPT1. The method, boiled down: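 Cyclin E1 remaining after 24 h compound exposure of OVCAR3 cells was quantified in lysates by electrochemiluminescent MSD sandwich assay. DC50 (50% response concentration) and Dmax (maximum response) were calculated, with 110% response set by a reference compound at […].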
Cyclin E1, sequence (P24864 whole entry): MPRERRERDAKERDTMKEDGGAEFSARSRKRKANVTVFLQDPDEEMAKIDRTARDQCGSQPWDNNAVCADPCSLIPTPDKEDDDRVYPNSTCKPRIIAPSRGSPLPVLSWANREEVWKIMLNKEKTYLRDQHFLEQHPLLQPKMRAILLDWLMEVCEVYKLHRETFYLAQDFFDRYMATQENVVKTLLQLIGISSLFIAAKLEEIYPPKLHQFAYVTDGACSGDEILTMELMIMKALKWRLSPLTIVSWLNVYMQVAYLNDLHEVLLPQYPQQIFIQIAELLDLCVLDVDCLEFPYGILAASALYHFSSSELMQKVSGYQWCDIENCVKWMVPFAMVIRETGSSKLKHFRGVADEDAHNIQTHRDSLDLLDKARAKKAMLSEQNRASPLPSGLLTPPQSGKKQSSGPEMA
Cyclin E1, sequence (Q96SW2 whole entry): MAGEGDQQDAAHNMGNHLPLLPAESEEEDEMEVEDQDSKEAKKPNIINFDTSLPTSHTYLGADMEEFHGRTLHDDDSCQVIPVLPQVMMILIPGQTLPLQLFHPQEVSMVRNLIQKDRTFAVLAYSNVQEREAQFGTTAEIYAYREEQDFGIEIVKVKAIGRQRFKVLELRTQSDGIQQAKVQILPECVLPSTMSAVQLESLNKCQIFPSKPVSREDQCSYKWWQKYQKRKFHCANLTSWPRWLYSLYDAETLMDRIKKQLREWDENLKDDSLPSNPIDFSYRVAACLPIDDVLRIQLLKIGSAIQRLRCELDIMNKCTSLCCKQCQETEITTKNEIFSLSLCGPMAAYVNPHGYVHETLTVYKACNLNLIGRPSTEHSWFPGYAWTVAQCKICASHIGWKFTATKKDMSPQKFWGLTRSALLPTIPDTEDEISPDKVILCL
Cyclin E1, sequence (Q16531 whole entry partner): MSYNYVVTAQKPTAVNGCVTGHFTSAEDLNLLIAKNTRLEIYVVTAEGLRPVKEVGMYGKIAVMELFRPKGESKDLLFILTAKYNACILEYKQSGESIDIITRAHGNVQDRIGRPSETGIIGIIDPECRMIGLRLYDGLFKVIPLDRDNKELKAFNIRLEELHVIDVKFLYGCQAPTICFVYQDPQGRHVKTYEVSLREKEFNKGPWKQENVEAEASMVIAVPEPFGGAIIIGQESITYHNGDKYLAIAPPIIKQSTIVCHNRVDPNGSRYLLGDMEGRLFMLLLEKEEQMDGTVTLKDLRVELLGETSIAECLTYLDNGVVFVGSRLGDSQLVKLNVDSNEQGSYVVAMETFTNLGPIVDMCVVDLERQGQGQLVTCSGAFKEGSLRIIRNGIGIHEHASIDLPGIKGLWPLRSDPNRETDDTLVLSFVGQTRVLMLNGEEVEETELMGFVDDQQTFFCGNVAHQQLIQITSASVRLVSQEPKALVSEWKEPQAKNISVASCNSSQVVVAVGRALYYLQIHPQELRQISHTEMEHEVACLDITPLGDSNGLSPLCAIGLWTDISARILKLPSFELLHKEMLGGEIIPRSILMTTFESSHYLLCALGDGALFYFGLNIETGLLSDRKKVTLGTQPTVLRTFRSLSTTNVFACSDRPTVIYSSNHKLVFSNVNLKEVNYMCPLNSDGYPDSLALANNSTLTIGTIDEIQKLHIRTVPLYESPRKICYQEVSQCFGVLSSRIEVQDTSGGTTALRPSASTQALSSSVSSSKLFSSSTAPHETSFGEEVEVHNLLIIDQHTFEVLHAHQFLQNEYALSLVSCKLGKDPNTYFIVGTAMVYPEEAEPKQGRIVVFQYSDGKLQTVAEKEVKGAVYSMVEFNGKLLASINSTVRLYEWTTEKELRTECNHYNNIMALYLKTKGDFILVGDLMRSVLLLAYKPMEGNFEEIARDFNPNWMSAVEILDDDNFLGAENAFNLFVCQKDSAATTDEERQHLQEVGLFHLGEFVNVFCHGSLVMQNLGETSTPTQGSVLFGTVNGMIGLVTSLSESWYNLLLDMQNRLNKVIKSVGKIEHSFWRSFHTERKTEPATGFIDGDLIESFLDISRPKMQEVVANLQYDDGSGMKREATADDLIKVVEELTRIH

GSPT1, sequence (P15170 whole entry, the tested form may be a part): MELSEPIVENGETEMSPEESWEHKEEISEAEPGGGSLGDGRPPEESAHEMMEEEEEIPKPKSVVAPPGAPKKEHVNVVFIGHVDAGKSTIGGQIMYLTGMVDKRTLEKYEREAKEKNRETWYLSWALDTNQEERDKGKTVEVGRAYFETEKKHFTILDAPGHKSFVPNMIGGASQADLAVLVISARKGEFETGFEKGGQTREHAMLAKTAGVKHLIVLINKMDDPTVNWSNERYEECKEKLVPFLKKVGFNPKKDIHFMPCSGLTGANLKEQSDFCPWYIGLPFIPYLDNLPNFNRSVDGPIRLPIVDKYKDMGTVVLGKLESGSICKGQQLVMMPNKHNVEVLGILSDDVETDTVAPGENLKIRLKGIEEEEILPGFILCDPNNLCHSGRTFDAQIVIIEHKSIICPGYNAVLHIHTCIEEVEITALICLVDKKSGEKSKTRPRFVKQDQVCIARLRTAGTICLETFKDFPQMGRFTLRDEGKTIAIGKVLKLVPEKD
GSPT1, sequence (Q96SW2 whole entry, the tested form may be a part): as the sequence (Q96SW2 whole entry) above
GSPT1, sequence (Q16531 whole entry partner, the tested form may be a part): as the sequence (Q16531 whole entry partner) above

`COc1c(COC(=O)Nc2ccc(Oc3cc(Cl)cc(Cl)c3)cc2F)ccc2c1C(=O)N(C1CCC(=O)NC1=O)C2` (centres unmarked) [Example 118, [2-(2,6-dioxopiperidin-3-yl)-4-methoxy-3-oxo-2,3-dihydro-1H-isoindol-5-yl]methyl N-[4-(3,5-dichlorophenoxy)-2-fluorophenyl]carbamate]: on GSPT1, the 50% degradation concentration (DC50) – broadly, the concentration at which degradation of the target reaches its halfway point – was over 14000 nM and the Dmax (usually the greatest extent of degradation seen) was 24%. For the same compound, in the experiment with Phospho-Rb (Ser807/811), the IC50 (commonly the concentration needed to halve the response being measured) amounted to 299 nM and the Emax amounted to 105%. Also, on Cyclin E1, it took 417 nM to reach half-maximal degradation (DC50), the Dmax worked out at 96% and the “Ratio of GSPT1 DC50/Cyclin E1 DC50” value is given as over 34.
`CC(C)Oc1c(COC(=O)Nc2ccc(Oc3ccc(F)c(F)c3)cc2F)ccc2c1C(=O)N(C1CCC(=O)NC1=O)C2` (centres unmarked) [Example 119, [2-(2,6-dioxopiperidin-3-yl)-3-oxo-4-(propan-2-yloxy)-2,3-dihydro-1H-isoindol-5-yl]methyl N-[4-(3,4-difluorophenoxy)-2-fluorophenyl]carbamate]: at GSPT1, the 50% degradation concentration (DC50) was over 14000 nM and the Dmax worked out at 10%. In the experiment on Phospho-Rb (Ser807/811), the IC50 amounted to 54 nM and the Emax amounted to 111%. For the same compound, on Cyclin E1, the half-maximal degradation concentration (DC50) was 116 nM, the Dmax was 107% and the “Ratio of GSPT1 DC50/Cyclin E1 DC50” value is listed as over 120.
In the case of `CC(C)Oc1c(COC(=O)Nc2ccc(Oc3cccc(F)c3F)cc2)ccc2c1C(=O)N(C1CCC(=O)NC1=O)C2` (centres unmarked) [Example 120, [2-(2,6-dioxopiperidin-3-yl)-3-oxo-4-(propan-2-yloxy)-2,3-dihydro-1H-isoindol-5-yl]methyl N-[4-(2,3-difluorophenoxy)phenyl]carbamate], at GSPT1, the half-maximal degradation concentration (DC50) was over 14000 nM and the Dmax is 6%. Moreover, in the experiment with Phospho-Rb (Ser807/811), the IC50 stood at 55 nM and the Emax is 121%. Further, on Cyclin E1, it took 148 nM to reach half-maximal degradation (DC50), the Dmax is 108% and the “Ratio of GSPT1 DC50/Cyclin E1 DC50” value was over 95.
As to `CC(C)Oc1c(COC(=O)Nc2ccc(Oc3ccccc3F)cc2)ccc2c1C(=O)N(C1CCC(=O)NC1=O)C2` (centres unmarked) [Example 121, [2-(2,6-dioxopiperidin-3-yl)-3-oxo-4-(propan-2-yloxy)-2,3-dihydro-1H-isoindol-5-yl]methyl N-[4-(2-fluorophenoxy)phenyl]carbamate], at GSPT1, the half-maximal degradation concentration (DC50) was over 14000 nM and the Dmax worked out at 9%. In the experiment with Phospho-Rb (Ser807/811), inhibition was half-maximal at 40 nM (IC50) and the Emax was 125%. For the same compound, on Cyclin E1, half-maximal degradation (DC50) was put at 53 nM, the Dmax stood at 107% and the “Ratio of GSPT1 DC50/Cyclin E1 DC50” value was over 263.
With `CC(C)Oc1c(COC(=O)Nc2ccc(Oc3ccccc3Cl)cc2)ccc2c1C(=O)N(C1CCC(=O)NC1=O)C2` (centres unmarked) [Example 122, [2-(2,6-dioxopiperidin-3-yl)-3-oxo-4-(propan-2-yloxy)-2,3-dihydro-1H-isoindol-5-yl]methyl N-[4-(2-chlorophenoxy)phenyl]carbamate], at GSPT1, the DC50 is over 14000 nM and the Dmax amounted to 16%. Moreover, in the experiment on Phospho-Rb (Ser807/811), the IC50 turned out to be 54 nM and the Emax is 122%. For the same compound, on Cyclin E1, the DC50 worked out at 61 nM, the Dmax turned out to be 106% and the “Ratio of GSPT1 DC50/Cyclin E1 DC50” value was over 230.
Take `CC(C)Oc1c(COC(=O)Nc2ccc(Oc3cccc(F)c3)cc2)ccc2c1C(=O)N(C1CCC(=O)NC1=O)C2` (centres unmarked) [Example 123, [2-(2,6-dioxopiperidin-3-yl)-3-oxo-4-(propan-2-yloxy)-2,3-dihydro-1H-isoindol-5-yl]methyl N-[4-(3-fluorophenoxy)phenyl]carbamate]: on GSPT1, the DC50 was over 14000 nM and the Dmax is 4%. Further, in the experiment on Phospho-Rb (Ser807/811), half-maximal inhibition (IC50) required 110 nM and the Emax turned out to be 121%. Besides, on Cyclin E1, the DC50 is 131 nM, the Dmax was 107% and the “Ratio of GSPT1 DC50/Cyclin E1 DC50” value was over 107.
In the case of `CC(C)Oc1c(COC(=O)Nc2ccc(Oc3ccc(F)cc3Cl)cc2)ccc2c1C(=O)N(C1CCC(=O)NC1=O)C2` (centres unmarked) [Example 124, [2-(2,6-dioxopiperidin-3-yl)-3-oxo-4-(propan-2-yloxy)-2,3-dihydro-1H-isoindol-5-yl]methyl N-[4-(2-chloro-4-fluorophenoxy)phenyl]carbamate], on GSPT1, the DC50 was over 14000 nM and the Dmax came out at 15%. Also, in the experiment with Phospho-Rb (Ser807/811), the IC50 worked out at 163 nM and the Emax was 121%. In addition, at Cyclin E1, the DC50 came to 195 nM, the Dmax amounted to 103% and the “Ratio of GSPT1 DC50/Cyclin E1 DC50” value is given as over 72.
Regarding `O=C1CCC(N2Cc3ccc(COC(=O)Nc4ccc(Oc5ccc(F)c(F)c5)cc4)c(OC4CCC4)c3C2=O)C(=O)N1` (centres unmarked) [Example 126, [4-cyclobutoxy-2-(2,6-dioxopiperidin-3-yl)-3-oxo-2,3-dihydro-1H-isoindol-5-yl]methyl N-[4-(3,4-difluorophenoxy)phenyl]carbamate], at GSPT1, the DC50 is over 14000 nM and the Dmax was found to be 9%. Besides, in the experiment on Phospho-Rb (Ser807/811), the concentration for half-maximal inhibition (IC50) was 117 nM and the Emax was 129%. Besides, at Cyclin E1, the 50% degradation concentration (DC50) amounted to 140 nM, the Dmax came to 107% and the “Ratio of GSPT1 DC50/Cyclin E1 DC50” value is reported as over 100.
Take `O=C1CCC(N2Cc3ccc(COC(=O)Nc4ccc(Oc5ccccc5Cl)cc4)c(OC4CCC4)c3C2=O)C(=O)N1` (centres unmarked) [Example 127, [4-cyclobutoxy-2-(2,6-dioxopiperidin-3-yl)-3-oxo-2,3-dihydro-1H-isoindol-5-yl]methyl N-[4-(2-chlorophenoxy)phenyl]carbamate]: at GSPT1, the DC50 was over 14000 nM and the Dmax was determined as 8%. Moreover, in the experiment on Phospho-Rb (Ser807/811), the half-inhibitory concentration (IC50) was 48 nM and the Emax stood at 121%. At Cyclin E1, the 50% degradation concentration (DC50) was determined as 126 nM, the Dmax was determined as 105% and the “Ratio of GSPT1 DC50/Cyclin E1 DC50” value is listed as over 111.
On to `O=C1CCC(N2Cc3ccc(COC(=O)Nc4ccc(Oc5ccc(F)cc5Cl)cc4)c(OC4CCC4)c3C2=O)C(=O)N1` (centres unmarked) [Example 128, [4-cyclobutoxy-2-(2,6-dioxopiperidin-3-yl)-3-oxo-2,3-dihydro-1H-isoindol-5-yl]methyl N-[4-(2-chloro-4-fluorophenoxy)phenyl]carbamate], for which, on GSPT1, the half-maximal degradation concentration (DC50) is over 14000 nM and the Dmax turned out to be 10%. In the experiment on Phospho-Rb (Ser807/811), inhibition was half-maximal at 136 nM (IC50) and the Emax worked out at 124%. Further, on Cyclin E1, the DC50 amounted to 101 nM, the Dmax stood at 106% and the “Ratio of GSPT1 DC50/Cyclin E1 DC50” value is recorded as over 139.
Turning to `O=C1CCC(N2Cc3ccc(COC(=O)Nc4ccc(Oc5ccc(F)c(F)c5)cc4)c(OC4COC4)c3C2=O)C(=O)N1` (centres unmarked) [Example 129, [2-(2,6-dioxopiperidin-3-yl)-4-(oxetan-3-yloxy)-3-oxo-2,3-dihydro-1H-isoindol-5-yl]methyl N-[4-(3,4-difluorophenoxy)phenyl]carbamate], on GSPT1, the DC50 is over 14000 nM and the Dmax was 19%. Moreover, in the experiment with Phospho-Rb (Ser807/811), the IC50 was determined as 187 nM and the Emax worked out at 117%. Besides, at Cyclin E1, the 50% degradation concentration (DC50) worked out at 221 nM, the Dmax came out at 107% and the “Ratio of GSPT1 DC50/Cyclin E1 DC50” value was over 63.
As to `O=C1CCC(N2Cc3ccc(COC(=O)Nc4ccc(Oc5ccc(F)c(F)c5)cc4)c(OC4CCOCC4)c3C2=O)C(=O)N1` (centres unmarked) [Example 130, [2-(2,6-dioxopiperidin-3-yl)-4-(oxan-4-yloxy)-3-oxo-2,3-dihydro-1H-isoindol-5-yl]methyl N-[4-(3,4-difluorophenoxy)phenyl]carbamate], at GSPT1, the half-maximal degradation concentration (DC50) was over 14000 nM and the Dmax was 19%. In the experiment with Phospho-Rb (Ser807/811), the IC50 is 22 nM and the Emax is 119%. At Cyclin E1, the half-maximal degradation concentration (DC50) turned out to be 19 nM, the Dmax came to 106% and the “Ratio of GSPT1 DC50/Cyclin E1 DC50” value is on record as over 738.
For `O=C1CCC(N2Cc3ccc(COC(=O)Nc4ccc(Oc5ccccc5Cl)cc4)c(OC4CCOCC4)c3C2=O)C(=O)N1` (centres unmarked) [Example 131, [2-(2,6-dioxopiperidin-3-yl)-4-(oxan-4-yloxy)-3-oxo-2,3-dihydro-1H-isoindol-5-yl]methyl N-[4-(2-chlorophenoxy)phenyl]carbamate], on GSPT1, the half-maximal degradation concentration (DC50) was over 14000 nM and the Dmax was determined as 0%. In the experiment on Phospho-Rb (Ser807/811), inhibition was half-maximal at 28 nM (IC50) and the Emax came out at 129%. For the same compound, at Cyclin E1, the DC50 was 31 nM, the Dmax worked out at 102% and the “Ratio of GSPT1 DC50/Cyclin E1 DC50” value is recorded as over 450.
On to `O=C1CCC(N2Cc3ccc(COC(=O)Nc4ccc(Oc5ccc(F)c(F)c5)cc4F)c(OC4CCOCC4)c3C2=O)C(=O)N1` (centres unmarked) [Example 132, [2-(2,6-dioxopiperidin-3-yl)-4-(oxan-4-yloxy)-3-oxo-2,3-dihydro-1H-isoindol-5-yl]methyl N-[4-(3,4-difluorophenoxy)-2-fluorophenyl]carbamate], for which, at GSPT1, the half-maximal degradation concentration (DC50) was over 14000 nM and the Dmax worked out at 10%. Also, in the experiment with Phospho-Rb (Ser807/811), the half-maximal inhibitory concentration (IC50) worked out at 66 nM and the Emax amounted to 142%. On Cyclin E1, the DC50 was 20 nM, the Dmax amounted to 107% and the “Ratio of GSPT1 DC50/Cyclin E1 DC50” value is reported as over 693.

For the origin of these results see patent US20250084056A1, “SUBSTITUTED OXOISOINDOLINYL PIPERIDINE-2,6-DIONE COMPOUNDS” (BRISTOL-MYERS SQUIBB COMPANY, priority 2023, published 2025).
